Experimental data published in patent US8546320B2, “Hsp9O-targeted anti-cancer chimeric peptide” (Kyoto University, priority 2008, dated 2013).
Where a SMILES comes first, the peptide text is derived from it.

Columns and labels:
[1] = test system: Caki-1; assay type: cell-based, human; details: Caki-1; for Anti-cancer activity (% relative to wild-type peptide) / Decrease in cell survival rate (% relative to wild-type peptide): wild-type peptide = 100%
Method: A total of 3×10^3 cells were inoculated per well on a 96 well plate and cultured in a medium containing 10% FBS for 24 hours, and incubated with 100 μl of a peptide having a gradual increase in concentration at 37° C. for 48 to 72 hours. The survival rate of the cells was measured by using WST-8 solution (Cell Count Reagent SF; Nacalai Tesque, Inc.).
(§1) Respective variant peptides were subjected to cell viability assay. Specifically, Caki-1 (American Type Culture Collection (Manassas, Va.) was inoculated in a total amount of 3×10^3 cells per well on a 96 well plate (Nunc™); the cells were cultured in a medium (DMEM (Tesque, Inc.) containing 10% FBS (fetal bovine serum; Biowest)) for 24 hours and incubated with 100 μl of a peptide having a gradual increase in concentration at 37° C. for 48 to 72 hours. The cell survival rate was measured by using WST-8 solution (Cell Count Reagent SF; Nacalai Tesque, Inc.) and compared with that of the wild-type Antp-TPR peptide.
as §1, with “medium” for “medium (DMEM (Tesque, Inc.)”, “FBS” for “FBS (fetal bovine serum; Biowest))”

[2] = test system: cancer cells; test: Cell viability assay, summary statements on cancer cells; assay type: cell-based; details: single mutation in TPR or Antp region of Antp-TPR

| SMILES | Anti-cancer activity (% relative to wild-type peptide) [1] | Decrease in cell survival rate (% relative to wild-type peptide) [1] | effect compared with the wild-type protein (summary of mutations) [2] | killing effect compared with the wild-type peptide [1] |
| --- | --- | --- | --- | --- |
| CC[C@H](C)[C@H](NC(=O)[C@H](CCCNC(=N)N)NC(=O)[C@H](C)NC(=O)[C@H](Cc1ccc(O)cc1)NC(=O)[C@H](C)NC(=O)[C@H](CCCCN)NC(=O)[C@H](CCCCN)NC(=O)[C@H](CCCCN)NC(=O)[C@H](Cc1c[nH]c2ccccc12)NC(=O)[C@H](CCCCN)NC(=O)[C@H](CCSC)NC(=O)[C@H](CCCNC(=N)N)NC(=O)[C@H](CCCNC(=N)N)NC(=O)[C@H](CC(N)=O)NC(=O)[C@H](CCC(N)=O)NC(=O)[C@H](Cc1ccccc1)NC(=O)[C@H](Cc1ccc(O)cc1)NC(=O)[C@@H](NC(=O)[C@H](CCCCN)NC(=O)[C@@H](NC(=O)[C@H](CCC(N)=O)NC(=O)[C@@H](N)CCCNC(=N)N)[C@@H](C)CC)[C@@H](C)CC)C(=O)NCC(=O)N[C@@H](CC(N)=O)C(=O)N[C@@H](CO)C(=O)N[C@@H](Cc1ccc(O)cc1)C(=O)N[C@@H](Cc1ccccc1)C(=O)N[C@@H](CCCCN)C(=O)O [Antp W6Y-TPR] (H-RQIKIYFQNRRMKWKKKAYARIGNSYFK-OH; N-terminus and C-terminus assumed) | 32.99% | 15.14% | effective but with an effect lower than the wild-type protein |  |
| CC[C@H](C)[C@H](NC(=O)[C@H](CCCNC(=N)N)NC(=O)[C@H](C)NC(=O)[C@H](Cc1ccc(O)cc1)NC(=O)[C@H](C)NC(=O)[C@H](CCCCN)NC(=O)[C@H](CCCCN)NC(=O)[C@H](CCCCN)NC(=O)[C@H](Cc1ccc(O)cc1)NC(=O)[C@H](CCCCN)NC(=O)[C@H](CCSC)NC(=O)[C@H](CCCNC(=N)N)NC(=O)[C@H](CCCNC(=N)N)NC(=O)[C@H](CC(N)=O)NC(=O)[C@H](CCC(N)=O)NC(=O)[C@H](Cc1ccccc1)NC(=O)[C@H](Cc1c[nH]c2ccccc12)NC(=O)[C@@H](NC(=O)[C@H](CCCCN)NC(=O)[C@@H](NC(=O)[C@H](CCC(N)=O)NC(=O)[C@@H](N)CCCNC(=N)N)[C@@H](C)CC)[C@@H](C)CC)C(=O)NCC(=O)N[C@@H](CC(N)=O)C(=O)N[C@@H](CO)C(=O)N[C@@H](Cc1ccc(O)cc1)C(=O)N[C@@H](Cc1ccccc1)C(=O)N[C@@H](CCCCN)C(=O)O [Antp W14Y-TPR] (H-RQIKIWFQNRRMKYKKKAYARIGNSYFK-OH; N-terminus and C-terminus assumed) | 83.36% | 41.80% | effect similar to that of the wild-type protein |  |
| CC[C@H](C)[C@H](NC(=O)[C@H](CCCNC(=N)N)NC(=O)[C@H](C)NC(=O)[C@H](Cc1ccc(O)cc1)NC(=O)[C@H](C)NC(=O)[C@H](CCCCN)NC(=O)[C@H](CCCCN)NC(=O)[C@H](CCCCN)NC(=O)[C@H](Cc1c[nH]c2ccccc12)NC(=O)[C@H](CCCCN)NC(=O)[C@H](CCSC)NC(=O)[C@H](CCCNC(=N)N)NC(=O)[C@H](CCCNC(=N)N)NC(=O)[C@H](CC(N)=O)NC(=O)[C@H](CCC(N)=O)NC(=O)[C@H](Cc1ccccc1)NC(=O)[C@H](Cc1c[nH]c2ccccc12)NC(=O)[C@@H](NC(=O)[C@H](CCCCN)NC(=O)[C@H](CC(C)C)NC(=O)[C@H](CCC(N)=O)NC(=O)[C@@H](N)CCCNC(=N)N)[C@@H](C)CC)C(=O)NCC(=O)N[C@@H](CC(N)=O)C(=O)N[C@@H](CO)C(=O)N[C@@H](Cc1ccc(O)cc1)C(=O)N[C@@H](Cc1ccccc1)C(=O)N[C@@H](CCCCN)C(=O)O [Antp 13L-TPR] (H-RQLKIWFQNRRMKWKKKAYARIGNSYFK-OH; N-terminus and C-terminus assumed) | 69.12% | 27.91% | effective but with an effect lower than the wild-type protein |  |
| CC[C@H](C)[C@H](NC(=O)[C@H](CCCNC(=N)N)NC(=O)[C@H](C)NC(=O)[C@H](Cc1ccc(O)cc1)NC(=O)[C@H](C)NC(=O)[C@H](CCCCN)NC(=O)[C@H](CCCCN)NC(=O)[C@H](CCCCN)NC(=O)[C@H](Cc1c[nH]c2ccccc12)NC(=O)[C@H](CCCCN)NC(=O)[C@H](CCSC)NC(=O)[C@H](CCCNC(=N)N)NC(=O)[C@H](CCCCN)NC(=O)[C@H](CC(N)=O)NC(=O)[C@H](CCC(N)=O)NC(=O)[C@H](Cc1ccccc1)NC(=O)[C@H](Cc1c[nH]c2ccccc12)NC(=O)[C@@H](NC(=O)[C@H](CCCCN)NC(=O)[C@@H](NC(=O)[C@H](CCC(N)=O)NC(=O)[C@@H](N)CCCNC(=N)N)[C@@H](C)CC)[C@@H](C)CC)C(=O)NCC(=O)N[C@@H](CC(N)=O)C(=O)N[C@@H](CO)C(=O)N[C@@H](Cc1ccc(O)cc1)C(=O)N[C@@H](Cc1ccccc1)C(=O)N[C@@H](CCCCN)C(=O)O [Antp R10K-TPR] (H-RQIKIWFQNKRMKWKKKAYARIGNSYFK-OH; N-terminus and C-terminus assumed) | 110.30% | 727.03% | effect similar to that of the wild-type protein | stronger than that of the wild-type peptide |
| CC[C@H](C)[C@H](NC(=O)[C@H](CCCNC(=N)N)NC(=O)[C@H](C)NC(=O)[C@H](Cc1ccc(O)cc1)NC(=O)[C@H](C)NC(=O)[C@H](CCCCN)NC(=O)[C@H](CCCCN)NC(=O)[C@H](CCCCN)NC(=O)[C@H](Cc1c[nH]c2ccccc12)NC(=O)[C@H](CCCCN)NC(=O)[C@H](CS)NC(=O)[C@H](CCCNC(=N)N)NC(=O)[C@H](CCCNC(=N)N)NC(=O)[C@H](CC(N)=O)NC(=O)[C@H](CCC(N)=O)NC(=O)[C@H](Cc1ccccc1)NC(=O)[C@H](Cc1c[nH]c2ccccc12)NC(=O)[C@@H](NC(=O)[C@H](CCCCN)NC(=O)[C@@H](NC(=O)[C@H](CCC(N)=O)NC(=O)[C@@H](N)CCCNC(=N)N)[C@@H](C)CC)[C@@H](C)CC)C(=O)NCC(=O)N[C@@H](CC(N)=O)C(=O)N[C@@H](CO)C(=O)N[C@@H](Cc1ccc(O)cc1)C(=O)N[C@@H](Cc1ccccc1)C(=O)N[C@@H](CCCCN)C(=O)O [Antp M12C-TPR] (H-RQIKIWFQNRRCKWKKKAYARIGNSYFK-OH; N-terminus and C-terminus assumed) | 102.68% | 128.91% | effect higher than the wild-type protein | stronger than that of the wild-type peptide |
| CC[C@H](C)[C@H](NC(=O)[C@H](CCCNC(=N)N)NC(=O)[C@H](C)NC(=O)[C@H](Cc1ccc(O)cc1)NC(=O)[C@H](C)NC(=O)[C@H](CCCCN)NC(=O)[C@H](CCCCN)NC(=O)[C@H](CCCNC(=N)N)NC(=O)[C@H](Cc1c[nH]c2ccccc12)NC(=O)[C@H](CCCCN)NC(=O)[C@H](CCSC)NC(=O)[C@H](CCCNC(=N)N)NC(=O)[C@H](CCCNC(=N)N)NC(=O)[C@H](CC(N)=O)NC(=O)[C@H](CCC(N)=O)NC(=O)[C@H](Cc1ccccc1)NC(=O)[C@H](Cc1c[nH]c2ccccc12)NC(=O)[C@@H](NC(=O)[C@H](CCCCN)NC(=O)[C@@H](NC(=O)[C@H](CCC(N)=O)NC(=O)[C@@H](N)CCCNC(=N)N)[C@@H](C)CC)[C@@H](C)CC)C(=O)NCC(=O)N[C@@H](CC(N)=O)C(=O)N[C@@H](CO)C(=O)N[C@@H](Cc1ccc(O)cc1)C(=O)N[C@@H](Cc1ccccc1)C(=O)N[C@@H](CCCCN)C(=O)O [Antp K15R-TPR] (H-RQIKIWFQNRRMKWRKKAYARIGNSYFK-OH; N-terminus and C-terminus assumed) | 110.21% | 687.99% | effect similar to that of the wild-type protein | stronger than that of the wild-type peptide |
| CC[C@H](C)[C@H](NC(=O)[C@H](CCCNC(=N)N)NC(=O)[C@H](C)NC(=O)[C@H](Cc1ccc(O)cc1)NC(=O)[C@H](C)NC(=O)[C@H](CCCCN)NC(=O)[C@H](CCCCN)NC(=O)[C@H](CCCCN)NC(=O)[C@H](Cc1c[nH]c2ccccc12)NC(=O)[C@H](CCCCN)NC(=O)[C@H](CCSC)NC(=O)[C@H](CCCNC(=N)N)NC(=O)[C@H](CCCNC(=N)N)NC(=O)[C@H](CC(N)=O)NC(=O)[C@H](CCC(N)=O)NC(=O)[C@H](Cc1ccc(O)cc1)NC(=O)[C@H](Cc1c[nH]c2ccccc12)NC(=O)[C@@H](NC(=O)[C@H](CCCCN)NC(=O)[C@@H](NC(=O)[C@H](CCC(N)=O)NC(=O)[C@@H](N)CCCNC(=N)N)[C@@H](C)CC)[C@@H](C)CC)C(=O)NCC(=O)N[C@@H](CC(N)=O)C(=O)N[C@@H](CO)C(=O)N[C@@H](Cc1ccc(O)cc1)C(=O)N[C@@H](Cc1ccccc1)C(=O)N[C@@H](CCCCN)C(=O)O [Antp F7Y-TPR] (H-RQIKIWYQNRRMKWKKKAYARIGNSYFK-OH; N-terminus and C-terminus assumed) | 29.86% | 14.56% | effective but with an effect lower than the wild-type protein |  |
